This is an account of results in patent publication US5492905A, “1-bolizazepin-2,5-diones” (Zeneca Limited, priority 1992, dated 1996).

The subject of test [1] is neuronal damage in the hippocampus. As to the kind of experiment: gerbil ischemic model (bilateral carotid occlusion), neuroprotection. The format is in vivo, Mongolian gerbils. To be noted: dosed twice with 20 mg/kg body weight ip (e.g. 45 min before and 5 min after occlusion); 10 min occlusion; brains taken after 4 days. How it is done:
When testing in vivo using the gerbil ischemic model, adult female Mongolian gerbils (50-70 g) are anesthetized with 2 to 3% halothane. The bilateral common carotid arteries at the neck are exposed and occluded with microaneurysm clips. After 10 min (unless specified), the clips are removed and the blood flow through the carotid arteries is restored and the skin is sutured. Test compounds are administered intraperitoneally both pre- and post-occlusion, for example 45 minutes before and 5 minutes after occlusion of the carotid arteries. Sham-operated animals are treated in the same manner except that the arteries are not clamped. Gross behavioral observations along with motor activity are recorded for 2 hr on the first (24 hr) day following the occlusion. After 4 days, subjects are sacrificed (decapitation), brains are removed, fixed, sectioned and stained with hematoxylin/eosin and cresyl violet.
The brain sections are rated for neuronal damage in the hippocampus using the following rating scale:
1=slight damage (up to 25%) - restricted CA1/subiculum border
2=moderate damage (up to 50%) - obvious damage, restricted to less than half of CA1 field
3=marked damage (up to 75%) - involving greater than half of CA1 field
4=damage extending beyond CA1 field
Results can be reported as the percentage of neuroprotection afforded by a particular dose and dosing regimen.
Sections (7 micron) are evaluated from each brain. Occasionally, asymmetrical damage may be noted and the rating assigned is the average score of the two sides. The average brain damage rating score for each group is recorded, and the damage scores of the drug treated group are compared to the vehicle-treated group using Wilcoxcon-Rank Sum test.

Test [2] has as its target T1, glycine receptor of the NMDA receptor complex (Rattus norvegicus, UniProt P35439).
T1 construct: neuronal synaptic membranes are prepared from adult (about 250 g) male Sprague-Dawley rats; from tissue; host or cells: synaptic membranes of cortices and hippocampi of adult male Sprague-Dawley rats
As to the kind of experiment: [3H]-glycine binding assay. Set-up: species or system Sprague-Dawley rats. The conditions noted are these: 20 nM [3H]-glycine, rat neuronal synaptic membranes (cortices and hippocampi), pH 7.1, 30 min, 4° C. The method, then: The actions of compounds of formula I as antagonists at the glycine receptor of the NMDA receptor complex can be shown by standard tests such as the [^3 H]-glycine binding assay, by functional assays in vitro such as tests for measuring glutamate evoked contractions of the guinea pig ileum, and by tests in vivo such as ischemia induced by carotid occlusion in the gerbil model.
In the [^3 H]-glycine binding assay, neuronal synaptic membranes are prepared from adult (about 250 g) male Sprague-Dawley rats. Freshly dissected cortices and hippocampi are homogenized in 0.32M sucrose (110 mg/mL). Synaptosomes are isolated by centrifugation (1000 xg, 10 min), the supernatant is pelleted (20,000 xg, 20 min) and resuspended in double-distilled water. The suspension was centrifuged for 20 minutes at 8,000 xg. The resulting supernatant and buffy coat are washed twice (48,000 xg, 10 mins, resuspension in double-deionized water). The final pellet is quickly frozen (dry ice ethanol bath) under double-deionized water and stored at -70 ° C. […]
For [^3 H]-glycine binding at the N-methyl-D-aspartate receptor, 20 nM [^3 H]-glycine (40-60 Ci/mmol, New England Nuclear, Boston, Mass.) is incubated with the membranes suspended in 50 mM tris (hydroxymethyl)aminomethane citrate, pH 7.1 for 30 minutes at 4° C. […] Radioactivity is estimated by liquid scintillation counting. […]

For `O=c1[nH]c2cc(Cl)ccc2c(=O)cc1NCCc1ccccc1` [Example 6, 8-Chloro-2,5-dioxo-3-phenethylamino-2,5-dihydro-1H-benz[b]azepine], the “neuroprotection (relative to sham-operated control)” value in test [1] is listed as “about 43%”.
Take `O=c1[nH]c2cc(Cl)ccc2c(=O)cc1N1CCCC1` [Example 12]: the “neuroprotection (relative to sham-operated control)” value in test [1] is “about 62%”. The IC50 in test [2] is ~470 µM.
With `O=c1[nH]c2cc(Cl)ccc2c(=O)cc1NC[C@H](O)[C@@H](O)[C@H](O)[C@H](O)CO` [Example 19, 8-Chloro-3-(D-glucamino)-2,5-dioxo-2,5-dihydro-1H-benz[b]azepine], the “neuroprotection (relative to sham-operated control)” value in test [1] was “about 80%”. For the same compound, the IC50 in test [2] is ~43 µM.
